Laboratory results as given in the kinase profiling compilation of Christmann-Franck et al. (2016).

Assays:
HIPK1 (human) [1] = biological target: HIPK1 (human) (UniProt Q86Z02); test: SelectScreen, TR FRET
HIPK2 (human) = HIPK2 (human) (UniProt Q9H2X6); test: SelectScreen, TR FRET
GAK (human) = GAK (human) (UniProt O14976); test: KINOMEscan competition binding; settings: compound 10.0 µM
PLK1 (human) = PLK1 (human) (UniProt P53350); test: KINOMEscan competition binding; settings: compound 10.0 µM
PLK3 (human) = PLK3 (human) (UniProt Q9H4B4); test: KINOMEscan competition binding; settings: compound 10.0 µM
PLK4 (human) = PLK4 (human) (UniProt O00444); test: KINOMEscan competition binding; settings: compound 10.0 µM
PTK2 (human) = PTK2 (human) (UniProt Q05397); test: KINOMEscan competition binding; settings: compound 10.0 µM
PTK2B (human) = PTK2B (human) (UniProt Q14289); test: KINOMEscan competition binding; settings: compound 10.0 µM
STK33 (human) = STK33 (human) (UniProt Q9BYT3); test: KINOMEscan competition binding; settings: compound 10.0 µM
TNK1 (human) = TNK1 (human) (UniProt Q13470); test: KINOMEscan competition binding; settings: compound 10.0 µM
TTK (human) [2] = biological target: TTK (human) (UniProt P33981); test: KINOMEscan competition binding; settings: for kinase still bound, per cent of control: compound 10.0 µM
TTK (human) [3] = biological target: TTK (human) (UniProt P33981); test: SelectScreen, TR FRET
CDK7 (human) = CDK7 (human) (UniProt P50613); test: KINOMEscan competition binding; settings: compound 10.0 µM
CSNK2A2 (human) = CSNK2A2 (human) (UniProt P19784); test: KINOMEscan competition binding; settings: compound 10.0 µM
HIPK1 (human) [4] = biological target: HIPK1 (human) (UniProt Q86Z02); test: KINOMEscan competition binding; settings: compound 10.0 µM
MAPK15 (human) = MAPK15 (human) (UniProt Q8TD08); test: KINOMEscan competition binding; settings: compound 10.0 µM
MINK1 (human) = MINK1 (human) (UniProt Q8N4C8); test: KINOMEscan competition binding; settings: compound 10.0 µM
[5] = test system: PIK3CA (human), P42336 [E545K]; test: KINOMEscan competition binding; settings: compound 10.0 µM
PIK3CG (human) = PIK3CG (human) (UniProt P48736); test: KINOMEscan competition binding; settings: compound 10.0 µM
PIM1 (human) [6] = biological target: PIM1 (human) (UniProt P11309); test: KINOMEscan competition binding; settings: compound 10.0 µM
PIM2 (human) [7] = biological target: PIM2 (human) (UniProt Q9P1W9); test: KINOMEscan competition binding; settings: compound 10.0 µM
PIM3 (human) = PIM3 (human) (UniProt Q86V86); test: KINOMEscan competition binding; settings: compound 10.0 µM
RPS6KA4 KD2 (human) = RPS6KA4 KD2 (human) (UniProt O75676); test: KINOMEscan competition binding; settings: compound 10.0 µM
STK17A (human) = STK17A (human) (UniProt Q9UEE5); test: KINOMEscan competition binding; settings: compound 10.0 µM
STK17B (human) = STK17B (human) (UniProt O94768); test: KINOMEscan competition binding; settings: compound 10.0 µM
TGFBR2 (human) = TGFBR2 (human) (UniProt P37173); test: KINOMEscan competition binding; settings: compound 10.0 µM
PIM1 (human) [8] = biological target: PIM1 (human) (UniProt P11309); test: SelectScreen, TR FRET
PIM2 (human) [9] = biological target: PIM2 (human) (UniProt Q9P1W9); test: SelectScreen, TR FRET
CAMKK2 (human) = CAMKK2 (human) (UniProt Q96RR4); test: KINOMEscan competition binding; settings: compound 10.0 µM
CLK2 (human) = CLK2 (human) (UniProt P49760); test: KINOMEscan competition binding; settings: compound 10.0 µM
DCLK1 (human) = DCLK1 (human) (UniProt O15075); test: KINOMEscan competition binding; settings: compound 10.0 µM
DCLK2 (human) = DCLK2 (human) (UniProt Q8N568); test: KINOMEscan competition binding; settings: compound 10.0 µM
FLT3 (human) = FLT3 (human) (UniProt P36888); test: KINOMEscan competition binding; settings: compound 10.0 µM
[10] = test system: FLT3 (human), P36888 [K663Q]; test: KINOMEscan competition binding; settings: compound 10.0 µM
KIT (human) = KIT (human) (UniProt P10721); test: KINOMEscan competition binding; settings: compound 10.0 µM
[11] = test system: KIT (human), P10721 [V559D]; test: KINOMEscan competition binding; settings: compound 10.0 µM
PDGFRB (human) = PDGFRB (human) (UniProt P09619); test: KINOMEscan competition binding; settings: compound 10.0 µM
RPS6KA2 KD2 (human) = RPS6KA2 KD2 (human) (UniProt Q15349); test: KINOMEscan competition binding; settings: compound 10.0 µM

Chain of TTK (human) (P33981 whole entry, looked up): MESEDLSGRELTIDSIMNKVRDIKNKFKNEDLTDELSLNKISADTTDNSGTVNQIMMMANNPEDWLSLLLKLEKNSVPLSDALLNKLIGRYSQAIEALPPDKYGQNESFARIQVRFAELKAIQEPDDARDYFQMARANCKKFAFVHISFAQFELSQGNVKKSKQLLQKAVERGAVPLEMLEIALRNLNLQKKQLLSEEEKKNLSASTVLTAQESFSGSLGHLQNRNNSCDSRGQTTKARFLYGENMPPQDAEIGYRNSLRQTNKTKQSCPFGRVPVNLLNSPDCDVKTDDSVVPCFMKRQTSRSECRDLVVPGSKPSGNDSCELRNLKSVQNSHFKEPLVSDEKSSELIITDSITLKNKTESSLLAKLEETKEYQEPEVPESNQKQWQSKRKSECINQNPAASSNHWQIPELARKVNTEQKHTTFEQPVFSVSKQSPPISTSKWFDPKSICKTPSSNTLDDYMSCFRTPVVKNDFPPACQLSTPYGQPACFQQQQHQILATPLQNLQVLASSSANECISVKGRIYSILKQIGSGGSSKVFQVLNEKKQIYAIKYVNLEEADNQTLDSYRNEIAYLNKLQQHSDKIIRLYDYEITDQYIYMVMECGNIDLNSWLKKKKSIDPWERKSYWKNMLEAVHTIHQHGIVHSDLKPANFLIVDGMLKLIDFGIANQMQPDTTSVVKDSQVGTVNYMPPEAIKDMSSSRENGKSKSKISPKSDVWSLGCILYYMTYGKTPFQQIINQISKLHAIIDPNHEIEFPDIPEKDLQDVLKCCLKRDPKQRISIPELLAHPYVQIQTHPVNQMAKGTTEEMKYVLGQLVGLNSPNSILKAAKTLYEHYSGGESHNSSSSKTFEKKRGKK
Chain of HIPK1 (human) (Q86Z02 whole entry, looked up): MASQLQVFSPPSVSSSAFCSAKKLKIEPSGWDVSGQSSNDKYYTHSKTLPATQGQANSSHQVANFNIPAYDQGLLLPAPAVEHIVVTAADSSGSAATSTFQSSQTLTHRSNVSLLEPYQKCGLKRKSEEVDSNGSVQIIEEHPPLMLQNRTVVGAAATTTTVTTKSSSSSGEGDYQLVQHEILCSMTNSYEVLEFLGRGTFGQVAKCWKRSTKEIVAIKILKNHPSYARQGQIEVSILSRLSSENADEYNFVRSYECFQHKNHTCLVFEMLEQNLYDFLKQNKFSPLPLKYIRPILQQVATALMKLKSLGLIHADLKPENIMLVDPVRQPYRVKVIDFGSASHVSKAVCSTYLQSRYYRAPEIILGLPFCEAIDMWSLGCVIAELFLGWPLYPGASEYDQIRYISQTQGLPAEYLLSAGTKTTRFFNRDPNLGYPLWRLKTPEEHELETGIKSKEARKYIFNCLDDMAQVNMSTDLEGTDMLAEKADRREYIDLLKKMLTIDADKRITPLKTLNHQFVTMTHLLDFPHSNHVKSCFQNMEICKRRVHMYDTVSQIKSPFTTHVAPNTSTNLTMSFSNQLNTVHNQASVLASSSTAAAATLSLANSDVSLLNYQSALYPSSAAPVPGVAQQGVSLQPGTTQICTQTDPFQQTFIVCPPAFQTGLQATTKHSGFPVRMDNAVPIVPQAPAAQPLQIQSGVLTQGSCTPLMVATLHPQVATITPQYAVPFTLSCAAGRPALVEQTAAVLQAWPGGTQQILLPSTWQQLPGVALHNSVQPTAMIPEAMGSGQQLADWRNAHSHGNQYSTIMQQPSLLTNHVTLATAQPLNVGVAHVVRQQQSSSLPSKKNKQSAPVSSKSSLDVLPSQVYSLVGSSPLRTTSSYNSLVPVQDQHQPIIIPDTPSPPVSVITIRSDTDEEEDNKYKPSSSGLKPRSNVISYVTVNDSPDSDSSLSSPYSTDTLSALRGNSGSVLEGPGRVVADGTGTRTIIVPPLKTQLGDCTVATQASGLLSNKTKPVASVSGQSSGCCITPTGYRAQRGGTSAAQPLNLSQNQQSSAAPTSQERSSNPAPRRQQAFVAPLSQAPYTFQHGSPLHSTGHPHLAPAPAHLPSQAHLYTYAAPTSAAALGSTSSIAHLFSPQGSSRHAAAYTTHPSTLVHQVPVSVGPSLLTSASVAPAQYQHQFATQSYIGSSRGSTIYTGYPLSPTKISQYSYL
Chain of HIPK2 (human) (Q9H2X6 whole entry, looked up): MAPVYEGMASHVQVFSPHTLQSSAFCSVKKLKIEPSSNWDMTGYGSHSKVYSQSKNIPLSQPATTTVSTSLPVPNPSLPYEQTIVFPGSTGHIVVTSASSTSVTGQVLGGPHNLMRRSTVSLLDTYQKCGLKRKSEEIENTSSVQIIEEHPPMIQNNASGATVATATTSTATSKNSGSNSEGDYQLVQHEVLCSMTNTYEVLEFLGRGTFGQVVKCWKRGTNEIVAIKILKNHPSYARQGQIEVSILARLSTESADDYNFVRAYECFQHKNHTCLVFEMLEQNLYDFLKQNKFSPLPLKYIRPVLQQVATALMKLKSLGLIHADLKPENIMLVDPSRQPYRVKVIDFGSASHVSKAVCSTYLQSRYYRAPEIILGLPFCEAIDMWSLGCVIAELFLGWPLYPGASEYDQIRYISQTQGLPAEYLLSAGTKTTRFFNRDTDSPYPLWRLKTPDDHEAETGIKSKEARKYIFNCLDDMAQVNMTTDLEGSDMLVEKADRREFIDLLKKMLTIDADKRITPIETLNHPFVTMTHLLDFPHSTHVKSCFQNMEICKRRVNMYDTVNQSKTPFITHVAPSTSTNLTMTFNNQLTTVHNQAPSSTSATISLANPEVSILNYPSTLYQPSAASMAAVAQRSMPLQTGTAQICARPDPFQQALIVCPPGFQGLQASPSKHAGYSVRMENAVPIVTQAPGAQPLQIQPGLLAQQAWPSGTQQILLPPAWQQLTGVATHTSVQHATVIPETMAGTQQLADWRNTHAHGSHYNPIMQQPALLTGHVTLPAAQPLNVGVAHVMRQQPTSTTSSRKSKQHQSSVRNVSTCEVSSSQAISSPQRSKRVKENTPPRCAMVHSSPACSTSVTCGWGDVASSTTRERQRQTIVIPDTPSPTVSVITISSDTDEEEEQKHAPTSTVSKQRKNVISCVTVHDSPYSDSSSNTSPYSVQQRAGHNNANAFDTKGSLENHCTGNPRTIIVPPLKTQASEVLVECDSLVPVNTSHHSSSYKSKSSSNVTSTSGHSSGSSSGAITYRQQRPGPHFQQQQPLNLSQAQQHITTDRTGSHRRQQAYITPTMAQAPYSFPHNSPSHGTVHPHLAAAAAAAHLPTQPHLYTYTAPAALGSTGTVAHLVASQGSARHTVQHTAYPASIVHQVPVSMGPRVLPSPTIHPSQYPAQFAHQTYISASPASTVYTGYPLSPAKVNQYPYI
Chain of GAK (human) (O14976 whole entry, looked up): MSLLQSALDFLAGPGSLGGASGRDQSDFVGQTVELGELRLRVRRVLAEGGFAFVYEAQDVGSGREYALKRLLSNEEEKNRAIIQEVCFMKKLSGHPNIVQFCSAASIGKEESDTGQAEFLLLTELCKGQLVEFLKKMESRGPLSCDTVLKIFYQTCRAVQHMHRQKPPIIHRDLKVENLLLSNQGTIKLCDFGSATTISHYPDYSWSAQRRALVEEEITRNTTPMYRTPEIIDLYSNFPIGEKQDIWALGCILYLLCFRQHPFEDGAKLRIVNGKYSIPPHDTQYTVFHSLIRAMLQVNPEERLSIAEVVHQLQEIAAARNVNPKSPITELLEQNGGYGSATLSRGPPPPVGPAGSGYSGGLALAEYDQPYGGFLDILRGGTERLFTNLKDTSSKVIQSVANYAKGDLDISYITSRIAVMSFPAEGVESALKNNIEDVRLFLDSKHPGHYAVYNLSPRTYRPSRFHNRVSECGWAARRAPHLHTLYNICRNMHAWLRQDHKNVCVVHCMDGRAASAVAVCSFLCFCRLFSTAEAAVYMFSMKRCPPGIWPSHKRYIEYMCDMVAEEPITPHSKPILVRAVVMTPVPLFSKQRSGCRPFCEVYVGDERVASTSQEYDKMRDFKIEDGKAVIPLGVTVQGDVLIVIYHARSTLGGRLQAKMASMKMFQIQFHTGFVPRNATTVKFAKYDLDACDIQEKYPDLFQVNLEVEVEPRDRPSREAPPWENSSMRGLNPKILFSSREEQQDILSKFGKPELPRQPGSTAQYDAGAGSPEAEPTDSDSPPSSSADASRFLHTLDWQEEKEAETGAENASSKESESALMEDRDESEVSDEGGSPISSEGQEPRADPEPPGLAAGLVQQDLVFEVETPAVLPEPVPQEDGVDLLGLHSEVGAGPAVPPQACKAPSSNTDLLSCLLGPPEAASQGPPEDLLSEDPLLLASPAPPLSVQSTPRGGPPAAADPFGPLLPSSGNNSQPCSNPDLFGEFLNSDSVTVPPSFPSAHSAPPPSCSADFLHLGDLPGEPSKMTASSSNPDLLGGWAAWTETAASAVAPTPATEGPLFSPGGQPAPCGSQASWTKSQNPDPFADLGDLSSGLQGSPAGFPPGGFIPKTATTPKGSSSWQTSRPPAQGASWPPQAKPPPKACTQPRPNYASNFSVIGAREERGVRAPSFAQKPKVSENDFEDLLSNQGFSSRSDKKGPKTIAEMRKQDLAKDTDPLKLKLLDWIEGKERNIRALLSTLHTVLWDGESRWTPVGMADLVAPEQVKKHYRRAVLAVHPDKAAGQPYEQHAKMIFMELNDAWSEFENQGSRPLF
Chain of STK33 (human) (Q9BYT3 whole entry, looked up): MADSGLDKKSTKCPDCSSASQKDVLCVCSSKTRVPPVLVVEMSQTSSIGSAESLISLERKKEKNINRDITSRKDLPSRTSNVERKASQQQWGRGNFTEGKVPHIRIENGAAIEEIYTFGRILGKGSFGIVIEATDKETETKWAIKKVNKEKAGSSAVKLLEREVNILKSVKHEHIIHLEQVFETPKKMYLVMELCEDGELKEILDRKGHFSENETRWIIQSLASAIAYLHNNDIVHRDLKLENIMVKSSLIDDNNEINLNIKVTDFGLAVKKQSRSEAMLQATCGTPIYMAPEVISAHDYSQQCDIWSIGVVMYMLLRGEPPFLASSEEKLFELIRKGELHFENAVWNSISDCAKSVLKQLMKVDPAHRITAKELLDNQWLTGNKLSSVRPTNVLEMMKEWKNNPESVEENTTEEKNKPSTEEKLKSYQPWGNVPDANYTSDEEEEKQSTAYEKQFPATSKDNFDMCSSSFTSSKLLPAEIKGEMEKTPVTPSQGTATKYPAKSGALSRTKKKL

## O=C1NC(=O)/C(=C/c2c[nH]c(=O)c(-c3cncc4ccccc34)c2)S1
HIPK1 (human) [1]
  IC50: > 10000 nM
HIPK2 (human)
  IC50: > 10000 nM

## COc1cc(N(C)CCCO)ccc1Nc1ncc2c(n1)N(C1CCCC1)CCC(=O)N2C
GAK (human)
  kinase still bound, per cent of control: 1.9%
PLK1 (human)
  kinase still bound, per cent of control: 1.7%
PLK3 (human)
  kinase still bound, per cent of control: 0%
PLK4 (human)
  kinase still bound, per cent of control: 12%
PTK2 (human)
  kinase still bound, per cent of control: 16%
PTK2B (human)
  kinase still bound, per cent of control: 29%
STK33 (human)
  kinase still bound, per cent of control: 11%
TNK1 (human)
  kinase still bound, per cent of control: 31%
TTK (human) [2]
  Kd: 58.8 nM
  kinase still bound, per cent of control: 2.6%
TTK (human) [3]
  IC50: 640 nM

## O=C1NC(=O)/C(=C/c2c[nH]c(=O)c(-c3ccc(N4CCNCC4)cc3)c2)S1
HIPK1 (human) [1]
  IC50: 52 nM
HIPK2 (human)
  IC50: 45 nM

## O=C1NC(=O)/C(=C/c2c[nH]c(=O)c(-c3ccc(N4CCNCC4)nc3)c2)N1
HIPK1 (human) [1]
  IC50: > 10000 nM
HIPK2 (human)
  IC50: > 10000 nM

## Nc1cccc(-c2cc(/C=C3\SC(=S)NC3=O)c[nH]c2=O)c1
HIPK1 (human) [1]
  IC50: 100 nM
HIPK2 (human)
  IC50: 93 nM

## O=C1NC(=O)/C(=C/c2c[nH]c(=O)c(-c3ccc(N4CCN(Cc5ccccc5)CC4)nc3)c2)S1
HIPK1 (human) [1]
  IC50: 392 nM
HIPK2 (human)
  IC50: 173 nM

## Nc1ccc(-c2cc(/C=C3\SC(=O)NC3=O)c[nH]c2=O)cn1
HIPK1 (human) [1]
  IC50: 500 nM
HIPK2 (human)
  IC50: 351 nM

## CS(=O)(=O)Nc1ccc(-c2ccc(/C=C3\SC(=N)NC3=O)o2)c(O)c1
CDK7 (human)
  kinase still bound, per cent of control: 0.9%
CSNK2A2 (human)
  kinase still bound, per cent of control: 22%
HIPK1 (human) [4]
  kinase still bound, per cent of control: 22%
MAPK15 (human)
  kinase still bound, per cent of control: 0.55%
MINK1 (human)
  kinase still bound, per cent of control: 30%
[5]
  kinase still bound, per cent of control: 32%
PIK3CG (human)
  kinase still bound, per cent of control: 1.6%
PIM1 (human) [6]
  kinase still bound, per cent of control: 3.3%
PIM2 (human) [7]
  kinase still bound, per cent of control: 0.45%
PIM3 (human)
  kinase still bound, per cent of control: 4.8%
RPS6KA4 KD2 (human)
  kinase still bound, per cent of control: 30%
STK17A (human)
  kinase still bound, per cent of control: 25%
STK17B (human)
  kinase still bound, per cent of control: 7.7%
TGFBR2 (human)
  kinase still bound, per cent of control: 32%
PIM1 (human) [8]
  IC50: 768 nM
PIM2 (human) [9]
  IC50: 1920 nM

## CS(=O)(=O)Nc1ccc(-c2ccc(C=C3C(=O)NC(=O)NC3=O)o2)cc1
CAMKK2 (human)
  kinase still bound, per cent of control: 34%
[5]
  kinase still bound, per cent of control: 20%

## CCN1C(=O)CCN(C2CCCC2)c2nc(Nc3ccc(N4CCC(O)CC4)cn3)ncc21
CLK2 (human)
  kinase still bound, per cent of control: 33%
DCLK1 (human)
  kinase still bound, per cent of control: 8.2%
DCLK2 (human)
  kinase still bound, per cent of control: 30%
FLT3 (human)
  kinase still bound, per cent of control: 31%
[10]
  kinase still bound, per cent of control: 27%
GAK (human)
  kinase still bound, per cent of control: 16%
KIT (human)
  kinase still bound, per cent of control: 33%
[11]
  kinase still bound, per cent of control: 31%
PDGFRB (human)
  kinase still bound, per cent of control: 11%
PLK1 (human)
  kinase still bound, per cent of control: 1.8%
PLK4 (human)
  kinase still bound, per cent of control: 24%
RPS6KA2 KD2 (human)
  kinase still bound, per cent of control: 32%
STK33 (human)
  kinase still bound, per cent of control: 23%
TTK (human) [2]
  Kd: 582 nM
  kinase still bound, per cent of control: 2%
TTK (human) [3]
  IC50: 3450 nM
